From ChEMBL document CHEMBL1201862, “PubChem BioAssay data set” (2004)
One block for each compound: values may come before it. Active and inactive are the calls of the source.

Experiments:
[1] = target: T1, Caspase-6 (Homo sapiens, UniProt P55212); assay: inhibition of CASP6 peptide cleavage – biochemical, VEID-R110 fluorescence, cherry-pick, dose response (AID 720632)
T1 sequence (P55212 whole entry): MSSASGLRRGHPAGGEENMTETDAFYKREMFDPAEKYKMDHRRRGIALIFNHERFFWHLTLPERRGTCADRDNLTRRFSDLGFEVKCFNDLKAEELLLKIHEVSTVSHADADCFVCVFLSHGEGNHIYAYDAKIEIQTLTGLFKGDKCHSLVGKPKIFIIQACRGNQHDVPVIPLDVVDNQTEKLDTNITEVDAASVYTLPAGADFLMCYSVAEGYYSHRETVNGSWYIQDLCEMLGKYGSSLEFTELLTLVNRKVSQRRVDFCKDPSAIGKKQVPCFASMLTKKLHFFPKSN

[2] = test system: Streptococcus; assay: GAS UMAA2166 growth inhibition – luminescence, BacTiterGlo, counter-screen for streptokinase expression inhibitor project, dose response (AID 1915); format: functional, organism-based;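 also: potency for reduction of bacterial viability or growth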
[3] = target: Troponin, cardiac muscle (Homo sapiens, UniProt P19429+P45379+P63316); assay: compounds desensitizing RTF to calcium – biochemical, fluorescence, cardiac regulated thin filaments, triplicate IC50, dose response (AID 504742); format: protein-complex assay
[4] = target: Glutathione-S-transferase (Schistosoma japonicum, UniProt Q26513); assay: GST-antibody interaction or FRET quenching – biochemical, TR-FRET, artefact control for Vif-APOBEC3G degradation inhibitor project, dose response (AID 1117362); format: functional
[5] = cells
[6] = target: T2, Caspase-3 (Homo sapiens, UniProt P42574); assay: SAR Analysis of small molecule inhibitors of Sentrin-specific proteases (SENPs) using a Caspase-3 Selectivity assay. [Related pubchem assays (depositor defined):AID2540, AID2599, AID434973, AID489001]; format: functional
T2 sequence (P42574 whole entry): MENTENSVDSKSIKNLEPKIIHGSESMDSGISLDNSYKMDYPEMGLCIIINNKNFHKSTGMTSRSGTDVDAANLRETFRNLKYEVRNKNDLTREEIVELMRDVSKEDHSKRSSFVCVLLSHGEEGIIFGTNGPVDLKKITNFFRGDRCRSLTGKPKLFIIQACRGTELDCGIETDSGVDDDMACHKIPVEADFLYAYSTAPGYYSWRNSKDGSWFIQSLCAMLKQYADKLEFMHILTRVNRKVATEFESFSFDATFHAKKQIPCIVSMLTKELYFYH

[7] = NIH3T3 cell viability loss – ATP luminescence, mouse fibroblasts, counter-screen, dose response (AID 2010); format: functional, cell-based;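 also: cells exposed to compound for about 90 hours before reading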
[8] = target: Protein kinase C gamma type (Homo sapiens, UniProt P05129); format: functional
[9] = target: Protein-tyrosine kinase 6 (Homo sapiens, UniProt Q13882); format: functional
[10] = target: Vascular endothelial growth factor receptor 2 (Homo sapiens, UniProt P35968); format: functional
[11] = target: Serine/threonine-protein kinase Chk1 (Homo sapiens, UniProt O14757); format: functional;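 also: measured as one member of a kinome-wide kinase profiling panel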
[12] = target: Tyrosine-protein kinase JAK2 (Homo sapiens, UniProt O60674); format: functional;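 also: JAK2 tested as one member of a kinase panel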
[13] = target: MAP kinase-activated protein kinase 5 (Homo sapiens, UniProt Q8IW41); format: functional;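 also: measured as one member of a kinome panel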
[14] = target: Mitogen-activated protein kinase kinase kinase 20 (Homo sapiens, UniProt Q9NYL2); format: functional
[15] = target: Non-receptor tyrosine-protein kinase TYK2 (Homo sapiens, UniProt P29597); format: functional
[16] = target: Mitogen-activated protein kinase kinase kinase kinase 2 (Homo sapiens, UniProt Q12851); format: functional;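 also: measured as one member of a kinome-wide kinase panel, with MAP4K2 as the panel entry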
[17] = target: Phosphorylase b kinase gamma catalytic chain, liver/testis isoform (Homo sapiens, UniProt P15735); format: functional;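 also: PHKG2 measured as one member of a kinome-wide kinase panel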
[18] = target: Mitogen-activated protein kinase 13 (Homo sapiens, UniProt O15264); format: functional
[19] = target: Serine/threonine-protein kinase PLK4 (Homo sapiens, UniProt O00444); format: functional;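 also: PLK4 measured as one member of a kinome-wide kinase profiling panel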
[20] = target: Casein kinase II subunit alpha (Homo sapiens, UniProt P68400); format: functional

Structure (SMILES): CC(=O)NC1C(=O)N(CCN2CCOCC2)c2ccc(F)cc21 (stereo not given)
AC50 [1]: 16 µM (active)

Structure (SMILES): O=C1C=C(N2CCCCC2)c2ccccc2C1=O
EC50 [2]: > 50 µM (not active)

Structure (SMILES): O=C(O)C1Nc2c(O)cc(Cl)c([N+](=O)[O-])c2C2C=CCC12 (stereo not given)
IC50 [3]: 11 µM (inactive)
IC50 [4]: > 100 µM (active)

Structure (SMILES): Clc1ccc2nc(-c3ccc(Br)s3)cn2c1
EC50 [5]: > 67.5 µM (inactive)

Structure (SMILES): O=C(CCc1ccccc1)NNc1cc(N2CCCCC2)nc(N2CCCCC2)n1
IC50 [6]: > 99 µM (inactive)
EC50 [7]: > 60 µM (not active)

Ki [8]: 0.00631 µM (active)
Ki [9]: > 2.51 µM (inactive)
Ki [10]: 3.98 µM (active)
Ki [11]: 6.31 µM (active)
Ki [12]: 1.26 µM (active)
Ki [13]: > 1.58 µM (inactive)
Ki [14]: 7.94 µM (active)
Ki [15]: > 2 µM (inactive)
Ki [16]: 0.0631 µM (active)
Ki [17]: 0.794 µM (active)
Ki [18]: 0.631 µM (active)
Ki [19]: 1.26 µM (active)
Ki [20]: 3.98 µM (active)
Structure (SMILES): Cc1n[nH]c2ccc(-c3cncc(OCC(N)Cc4cccc(Cl)c4)c3)cc12 (stereo not given)
